Laboratory results: patent US20080207452A1, “Ionic liquids derived from herbicidal carboxylic acids and certain trialkylamines or heteroarylamines” (Dow AgroSciences LLC, priority 2007, published 2008)

Key:
Type in all cases: in vivo
[1] = test system: Barnyardgrass Echinochloa crus-galli; test: Post-emergence greenhouse herbicide evaluation, barnyardgrass; details: 240 g ae/ha, 14 days after application, visual injury 0-100% vs untreated
Excerpt: (§1) Post-Emergence Application Methods for Herbicide Evaluations.
(§2) A peat based potting soil, Metro-mix 360, was used as the soil media for this test. Metro-mix is a growing medium consisting of 35 to 45% specially processed Coconut Coir Pith, 10 to 20% horticultural grade vermiculite, 15 to 25% processed Ash Bark, 20 to 30% choice Canadian Sphagnum Peat Moss and proprietary nutrients and other ingredients. Several seeds of each species were planted in 10 cm square pots and top watered twice daily. Plant material was propagated in the greenhouse at a constant temperature of 26 to 28° C. and 50 to 60% relative humidity. Natural light was supplemented with 1000-watt metal halide overhead lamps with an average illumination of 500 μE m^−2 s^−1 photosynthetic active radiation (PAR). Day length was 16 hours. Plant material was top-watered prior to treatment and sub-irrigated after treatment. Treatments were applied with a tracksprayer manufactured by Allen Machine Works. The sprayer utilized an 8003E spray nozzle, spray pressure of 262 kPa pressure and speed of 2.8 mph (4.5 km/h) to deliver 187 L/Ha. The nozzle height was 46 cm above the plant canopy. The growth stage of the various weed species ranged from 2 to 4 leaf. Treatments were replicated 3 times. Plants were returned to the greenhouse after treatment and sub-watered throughout the duration of the experiment. Plant material was fertilized twice weekly with Hoagland's fertilizer solution. Percent visual injury assessments were made on a scale of 0 to 100% as compared to the untreated control plants (where 0 is equal to no injury and 100 is equal to complete death of the plant).

[2] = test system: Large Crabgrass Digitaria Sanguinalis; test: Post-emergence greenhouse herbicide evaluation, large crabgrass; details: 240 g ae/ha, 14 days after application, visual injury 0-100% vs untreated
Excerpt: as §1, §2

[3] = test system: grapes (Vitis labrusca L.); test: Volatility evaluation: injury to grapes from vapor exposure to treated wheat; details: wheat sprayed at 11200 g ae/ha, 24 hour vapor exposure at 40° C., evaluated 7 days after exposure
Excerpt: Methods for Evaluating the Volatility of 2,4-D Standards and Ionic Liquids of 2,4-D.
Four pots of wheat (Triticum aestivum L.) grown in 4 inch square pots were sprayed at 11200 g ae/ha with each of the different forms of 2,4-D. Treatments were applied with a tracksprayer manufactured by Allen Machine Works. The sprayer utilized an 8002E spray nozzle, spray pressure of 262 kPa pressure and speed of 1.5 mph (2.4 km/h) to deliver 187 L/Ha. The nozzle height was 46 cm above the plant canopy. The growth stage of the wheat was 1 to 2 leaf. The wheat plants were allowed to thoroughly dry to ensure that none of the spray solution was present when they were moved into a clean pot flat. A known sensitive species, grapes (Vitis labrusca L.) were placed at the opposite end of the flat. All of the pots were covered with a humidome with small ½ inch (1.27 cm) diameter holes cut into the end where the wheat was placed and a small box fan powered with a battery in the other end to pull air across the treated wheat plants and over the top of grapes. Plants were placed into a growth chamber with the temperature set at 40° C. with a 14 hour day and a 10 hour night cycle. A 24 hour exposure period was used after which the sensitive plants were then removed and placed in the greenhouse and evaluated for injury from vapor exposure to the treatments.

[4] = test system: Broadleaf Dock Rumex obtusifolia; test: Post-emergence greenhouse herbicide evaluation, broadleaf dock; details: 560 g ae/ha, 14 days after application, visual injury 0-100% vs untreated
Excerpt: as §1, §2

Kochia Kochia scoparia = test: Post-emergence greenhouse herbicide evaluation, kochia; details: 560 g ae/ha, 14 days after application, visual injury 0-100% vs untreated
Excerpt: as §1, §2

Structure (SMILES) | % Control Barnyardgrass Echinochloa crus-galli [1] [%] | % Control Large Crabgrass Digitaria Sanguinalis [2] [%] | % Injury to grapes from vapor exposure [3] [%] | % Control Broadleaf Dock Rumex obtusifolia [4] [%] | % Control Kochia Kochia scoparia (Kochia Kochia scoparia) [%]
CCCCCCCCN(C)C.C[C@@H](Oc1ccc(Oc2ccc(C#N)cc2F)cc1)C(=O)O [Compound 4i] | 100 | 78 |  |  | 
CCCCCCCCN(C)C.O=C(O)COc1ccc(Cl)cc1Cl [Compound 3c] |  |  | 0 |  | 
CCCCOCCOC(=O)COc1nc(Cl)c(Cl)cc1Cl [Triclopyr butoxyethylester (BEE), Triclopyr butoxyethylester, reference compound] |  |  |  | 79 | 95
CCCCOC(=O)[C@H](C)Oc1ccc(Oc2ccc(C#N)cc2F)cc1 [cyhalofop Bu-ester, reference compound] | 100 | 92 |  |  | 
CN(C)Cc1ccccc1.C[C@@H](Oc1ccc(Oc2ccc(C#N)cc2F)cc1)C(=O)O [Compound 4k] | 100 | 85 |  |  | 
CCCCCCCCCCCCCCCCN(C)C.O=C(O)COc1ccc(Cl)cc1Cl [Compound 3g] |  |  | 0 |  | 
CCCCCCCCn1ccnc1.O=C(O)COc1ccc(Cl)cc1Cl [Compound 1c] |  |  |  | 82 | 97
CCCCCCN(C)C.O=C(O)COc1nc(Cl)c(Cl)cc1Cl [Compound 4b] |  |  |  | 49 | 96
CCCCCCCCn1ccnc1.O=C(O)COc1nc(Cl)c(Cl)cc1Cl [Compound 2c] |  |  |  | 52 | 92
CCCCOCCOC(=O)COc1ccc(Cl)cc1Cl [2,4-D butoxyethylester (BEE), 2,4-D butoxyethylester, reference compound] |  |  | 100 | 96 | 95
CNC.O=C(O)COc1ccc(Cl)cc1Cl [2,4-D dimethylamine (DMA), 2,4-D dimethylamine, reference compound] |  |  | 78 | 40 | 76
CC(Oc1ccc(Oc2ccc(C#N)cc2F)cc1)C(=O)O.CCCCCCCCCCCCCCN(C)C (stereo not shown) [Compound 4j] | 100 | 82 |  |  | 
CCCCCCN(C)C.O=C(O)COc1ccc(Cl)cc1Cl [Compound 3b] |  |  |  | 73 | 97
CCN(CC)CC.O=C(O)COc1nc(Cl)c(Cl)cc1Cl [Triclopyr triethylamine (TEA), Triclopyr triethylamine, reference compound] |  |  |  | 40 | 93
